In paper PMC11597387 (Molecules, 2024):
Several values for one entry are separate records, joined by “and”; a condition that tells them apart may be missing. Equal values may be shown once. Read-outs that look alike come from different tables or passages of the source.

Tests used:
[1] = pKa determination by UV/vis spectrometric method; assay type: physicochemical; conditions: buffers I = 0.1 M, 1% methanol
From the text: For the successful determination of pKa values using the UV/vis spectrometric method, the UV/vis absorbance of the sample must change as a function of ionization. […] For the other investigated compounds, the spectra and results of data analysis are presented in the Supporting Information (Figures S1–S3). […] At lower pH values, the molecules are neutral with an absorption maximum between 311 nm and 343 nm. At the highest pH value, only deprotonated species are present with two absorption maxima, one at a wavelength around 370 nm and the other around 305 nm. […] Data analysis for the determination of ionization constants by spectral analysis applied in this study is described by Tomsho et al. and Ríos Martínez and Dardonville.
The results of repeated measurements show satisfactory precision with scatter values less than or equal to 0.06 for all compounds [36].
Working solutions were prepared by 100-fold dilution of stock solutions with appropriate buffer solutions.
Chemicals used for preparation of buffers were sodium acetate (Alkaloid, Skopje, Macedonia), potassium dihydrogenphosphate (Lach-ner, Neratovice, Czech Republic), sodium hydrogencarbonate (Kemika, Zagreb, Croatia), and dipotassium hydrogenphosphate (Fisher Chemical, Loughborough, UK). Sodium hydroxide was supplied by Gram-mol (Zagreb, Croatia), and hydrochloric acid was supplied by VWR Chemicals (Leuven, Belgium). All chemicals used were of analytical grade and used as received. For the preparation of buffer solutions for spectrophotometric measurements, stock solutions of 0.1 M sodium acetate, 0.05 M potassium dihydrogen phosphate, 0.05 M sodium hydrogen carbonate, and 0.05 M dipotassium hydrogen phosphate were used. Sodium acetate/acetic acid buffer was used for pH range 3.5−5.0, KH2PO4/K2HPO4 for pH range 5.5–8.5, […] for pH range 9.0−11.0, and K2HPO4/K3PO4 for pH range 11.0−11.5. All buffer solutions were prepared with the same ionic strength (I = 0.1 M) by adding KCl (Lach-ner, Neratovice, Czech Republic).
The exact pH value of the prepared buffer solutions was measured with an S20 SevenEasy pH-meter (MettlerToledo, Greifenseea, Switzerland).
The data analysis was carried out in the entire specified range. However, due to high absorbance at short wavelengths and zero absorbance at wavelengths greater than 500 nm, spectra in the range from 250 nm to 500 nm are shown in the figures for a clearer presentation. […] Appropriate buffer solutions were used as a blank.
Data analysis included correction of the raw spectra (A(500 nm) = 0) and the calculation of the spectral difference, which were performed using Excel program. The spectral difference was determined between the spectra recorded at each pH and at the spectra recorded at the lowest pH. The wavelengths of maximum positive and negative deviations were determined from the spectral difference graph. The absolute values of the absorbance difference at the determined wavelengths were summed to obtain total absorbance difference. The dependence of the total absorbance difference on pH (spectral difference graph) gives a characteristic sigmoidal curve. […] (1) Total absorbace difference = STεHA−εA^−·10^(pH−pKa)/1+10^(pH−pKa) where [ST] is the total substance concentration, and εHA and εA^− represent the extinction coefficients of the acidic and basic form of the compound, respectively.
Measurements were performed using freshly prepared working solutions. For each resveratrol analogue and each pH, three consecutive measurements were made.

[2] = literature value, no reference given; cited from earlier work
[3] = mean of three determinations, read-out: pKa¯ ± Scatter Value
[4] = single determination (one of three)
[5] = single determination (one of three), read-out: pKa

SMILES	pKa [1, 3]	pKa [1, 4]	pKa [1, 5]	experimental pKa^exp [2]
Oc1ccccc1/C=C/c1cccs1 [Compound 2, (E)-2-(2-(Thiophen-2-yl)vinyl)phenol]	9.88 ± 0.04	9.86 and 9.92	9.85	
Oc1cccc(/C=C/c2cccs2)c1 [Compound 3, (E)-3-(2-(Thiophen-2-yl)vinyl)phenol]	10.1	10.05	10.1	
COc1ccc(/C=C/c2cccs2)c(O)c1 [Compound 4, (E)-5-Methoxy-2-(2-(thiophen-2-yl)vinyl)phenol]	9.17 ± 0.06	9.21 and 9.11	9.19	
Cc1ccc(/C=C/c2ccccc2O)s1 [Compound 5, (E)-2-(2-(5-Methylthiophen-2-yl)vinyl)phenol]	9.4	9.36	9.45	
COc1ccc(/C=C/c2ccc(C)s2)c(O)c1 [Compound 6, (E)-5-Methoxy-2-(2-(5-methythiophen-2-yl)vinyl)phenol]	9.62	9.59 and 9.66	9.62	
COc1cccc(O)c1 [meta-methoxyphenol]				9.6
